Results published in publication PMC10444810, “Induction of open-form bile canaliculus formation by hepatocytes for evaluation of biliary drug excretion” (Communications Biology, 2023).
Where “and” joins values, the source holds several entries; their conditions need not be identical. Equal entries are not always repeated.

Tested on: icHep (PXB-cells on claudin-1, -2, -3, -9 coated Transwell permeable support)
Assay: icHep permeation assay (sinusoidal to bile side) to estimate drug biliary excretion clearance
Conditions: for In vitro CLbile, app: single replicates; for Predicted in vivo CLbile, int, Mean: mean of 3; for In vitro CLbile, int / Predicted in vivo CLbile, int: single replicate; for Biliary excretion clearance, in vivo, predicted, CLbile, int: scaled up from in vitro CLbile,int, mean ± S.D., n = 3
[1] = Control, block with icHep (HUM181001B)
[2] = Control, block with icHep (JFC)

| SMILES | In vitro CLbile, app, Mean [1] | In vitro CLbile, app [1] | In vitro CLbile, app, Mean [2] | In vitro CLbile, app [2] | Predicted in vivo CLbile, int, Mean (icHep (HUM181001B)) | In vitro CLbile, int (icHep (HUM181001B)) | Predicted in vivo CLbile, int (icHep (HUM181001B)) | In vitro CLbile, app, Mean (icHep (HUM181001B)) | Biliary excretion clearance, in vivo, predicted, CLbile, int (icHep (HUM181001B)) | In vitro CLbile, app (icHep (HUM181001B)) | Predicted in vivo CLbile, int, Mean (icHep (JFC)) | In vitro CLbile, int (icHep (JFC)) | Predicted in vivo CLbile, int (icHep (JFC)) | In vitro CLbile, app, Mean (icHep (JFC)) | Biliary excretion clearance, in vivo, predicted, CLbile, int (icHep (JFC)) | In vitro CLbile, app (icHep (JFC)) |
| --- | --- | --- | --- | --- | --- | --- | --- | --- | --- | --- | --- | --- | --- | --- | --- | --- |
| CN(Cc1cnc2nc(N)nc(N)c2n1)c1ccc(C(=O)N[C@@H](CCC(=O)O)C(=O)O)cc1 [Methotrexate, methotrexate] | 1.51 ul/min/106 cells | 1.65 ul/min/106 cells and 1.43 ul/min/106 cells and 1.44 ul/min/106 cells | 1.37 ul/min/106 cells | 1.41 ul/min/106 cells and 1.36 ul/min/106 cells and 1.35 ul/min/106 cells | 157 mL/min | 0.425 ul/min/106 cells and 0.942 ul/min/106 cells and 0.808 ul/min/106 cells | 91.9 mL/min and 203 mL/min and 175 mL/min | 2.23 ul/min/106 cells | 157 ± 57.9 mL/min | 2.08 ul/min/106 cells and 2.37 ul/min/106 cells and 2.25 ul/min/106 cells | 241 mL/min | 1.21 ul/min/106 cells and 1.27 ul/min/106 cells and 0.865 ul/min/106 cells | 261 mL/min and 274 mL/min and 187 mL/min | 2.11 ul/min/106 cells | 241 ± 46.9 mL/min | 2.06 ul/min/106 cells and 2.12 ul/min/106 cells and 2.13 ul/min/106 cells |
| CN/C(=N/CCSCc1nc[nH]c1C)NC#N [Cimetidine, cimetidine] | 0.585 ul/min/106 cells | 0.596 ul/min/106 cells and 0.590 ul/min/106 cells and 0.570 ul/min/106 cells | 1.14 ul/min/106 cells | 1.06 ul/min/106 cells and 1.22 ul/min/106 cells and 1.15 ul/min/106 cells | 97.8 mL/min | 0.316 ul/min/106 cells and 0.409 ul/min/106 cells and 0.633 ul/min/106 cells | 68.3 mL/min and 88.4 mL/min and 137 mL/min | 1.04 ul/min/106 cells | 97.8 ± 35.1 mL/min | 0.913 ul/min/106 cells and 1.00 ul/min/106 cells and 1.20 ul/min/106 cells | 188 mL/min | 0.810 ul/min/106 cells and 1.04 ul/min/106 cells and 0.756 ul/min/106 cells | 175 mL/min and 225 mL/min and 163 mL/min | 2.01 ul/min/106 cells | 188 ± 32.8 mL/min | 1.87 ul/min/106 cells and 2.26 ul/min/106 cells and 1.90 ul/min/106 cells |
| CC[C@H]1OC(=O)[C@H](C)[C@@H](O[C@H]2C[C@@](C)(OC)[C@@H](O)[C@H](C)O2)[C@H](C)[C@@H](O[C@@H]2O[C@H](C)C[C@H](N(C)C)[C@H]2O)[C@](C)(O)C[C@@H](C)C(=O)[C@H](C)[C@@H](O)[C@]1(C)O [Erythromycin, erythromycin] | 0.624 ul/min/106 cells | 0.611 ul/min/106 cells and 0.632 ul/min/106 cells and 0.630 ul/min/106 cells |  | 1.41 ul/min/106 cells and 1.36 ul/min/106 cells and 1.35 ul/min/106 cells | 171 mL/min | 0.865 ul/min/106 cells and 0.795 ul/min/106 cells and 0.720 ul/min/106 cells | 187 mL/min and 172 mL/min and 155 mL/min |  | 171 ± 15.6 mL/min | 1.48 ul/min/106 cells and 1.43 ul/min/106 cells and 1.35 ul/min/106 cells | 158 mL/min | 0.650 ul/min/106 cells and 0.762 ul/min/106 cells and 0.784 ul/min/106 cells | 140 mL/min and 165 mL/min and 169 mL/min |  | 158 ± 15.6 mL/min | 2.06 ul/min/106 cells and 2.13 ul/min/106 cells |
| CCOc1ccc2ccccc2c1C(=O)N[C@@H]1C(=O)N2[C@@H]1SC(C)(C)[C@@H]2C(=O)O [Nafcillin, nafcillin] | 0.838 ul/min/106 cells | 0.848 ul/min/106 cells and 0.836 ul/min/106 cells and 0.830 ul/min/106 cells | 1.10 ul/min/106 cells | 0.724 ul/min/106 cells and 1.28 ul/min/106 cells and 1.30 ul/min/106 cells | 232 mL/min | 0.964 ul/min/106 cells and 1.03 ul/min/106 cells and 1.23 ul/min/106 cells | 208 mL/min and 222 mL/min and 266 mL/min | 1.91 ul/min/106 cells | 232 ± 30.1 mL/min | 1.81 ul/min/106 cells and 1.86 ul/min/106 cells and 2.06 ul/min/106 cells | 479 mL/min | 3.37 ul/min/106 cells and 1.82 ul/min/106 cells and 1.47 ul/min/106 cells | 727 mL/min and 394 mL/min and 316 mL/min | 3.32 ul/min/106 cells | 479 ± 218 mL/min | 4.09 ul/min/106 cells and 3.10 ul/min/106 cells and 2.77 ul/min/106 cells |
| C[C@H]1O[C@@H](O[C@H]2[C@@H](O)C[C@H](O[C@H]3[C@@H](O)C[C@H](O[C@H]4CC[C@@]5(C)[C@H](CC[C@@H]6[C@@H]5C[C@@H](O)[C@]5(C)[C@@H](C7=CC(=O)OC7)CC[C@]65O)C4)O[C@@H]3C)O[C@@H]2C)C[C@H](O)[C@@H]1O [Digoxin, digoxin] |  |  |  |  |  |  | 242 mL/min and 175 mL/min |  |  |  |  |  | 71.3 mL/min and 159 mL/min and 72.7 mL/min |  |  |  |
| CC[C@]1(O)C[C@H]2CN(CCc3c([nH]c4ccccc34)[C@@](C(=O)OC)(c3cc4c(cc3OC)N(C=O)[C@H]3[C@@](O)(C(=O)OC)[C@H](OC(C)=O)[C@]5(CC)C=CCN6CC[C@]43[C@@H]65)C2)C1 [Vincristine, vincristine] | 0.159 ul/min/106 cells | 0.124 ul/min/106 cells and 0.154 ul/min/106 cells and 0.199 ul/min/106 cells | 0.205 ul/min/106 cells | 0.186 ul/min/106 cells and 0.220 ul/min/106 cells and 0.208 ul/min/106 cells | 27.6 mL/min | 0.176 ul/min/106 cells and 0.118 ul/min/106 cells and 0.0898 ul/min/106 cells | 38.0 mL/min and 25.6 mL/min and 19.4 mL/min | 0.287 ul/min/106 cells | 27.6 ± 9.46 mL/min | 0.300 ul/min/106 cells and 0.273 ul/min/106 cells and 0.289 ul/min/106 cells | 37.3 mL/min | 0.159 ul/min/106 cells and 0.230 ul/min/106 cells and 0.129 ul/min/106 cells | 34.3 mL/min and 49.7 mL/min and 27.8 mL/min | 0.377 ul/min/106 cells | 37.3 ± 11.2 mL/min | 0.345 ul/min/106 cells and 0.450 ul/min/106 cells and 0.337 ul/min/106 cells |
